Assay results taken from publication PMC3523391 (Leukemia, 2012).

Legend:
[1] = single-agent phase I-II clinical trial in AML; cited from earlier work
MOLM-13-RES cells = assay: MTS cell viability assay, MOLM-13-RES; assay type: cell-based, human; conditions: ratio of in vitro viability potency, MOLM-13-RES vs MOLM-13
[2] = in mice; cited from earlier work
in vivo = assay: in vivo; design: species or system mice; conditions: female, athymic CrTac:NCr-Fox1(nu), mouse, po, 160 mg/kg

SMILES | response rate [1] | relative resistance of MOLM-13-RES compared with parental MOLM-13 cells (MOLM-13-RES cells) | further results
COc1cc(Nc2ncc3c(n2)-c2ccc(Cl)cc2C(c2c(F)cccc2OC)=NC3)ccc1C(=O)O [MLN8237] | 17% |  | 
CNC(=O)c1cc(Oc2ccc(NC(=O)Nc3ccc(Cl)c(C(F)(F)F)c3)cc2)ccn1 [Sorafenib] |  | approximately 60 fold | 
CC(C)(C)c1cc(NC(=O)Nc2ccc(-c3cn4c(n3)sc3cc(OCCN5CCOCC5)ccc34)cc2)no1 [AC220] |  | approximately 23 fold | 
COc1cc2c(N3CCN(C(=O)Nc4ccc(OC(C)C)cc4)CC3)ncnc2cc1OCCCN1CCCCC1 [MLN518] |  |  | plasma protein binding [2]: 80%; concentration at 1 h after the last dose (in vivo): ~200 nM; concentration at 6 h after the last dose (in vivo): ~40 nM
CCN(CCCOc1ccc2c(Nc3cc(CC(=O)Nc4cccc(F)c4)n[nH]3)ncnc2c1)CCOP(=O)(O)O [AZD1152] | 25% |  | 
